{
  "source": "ChEMBL document CHEMBL1201862",
  "about": "“PubChem BioAssay data set” (2004)",
  "key": {"[1]": {"target": "T1, Sentrin-specific protease 8 (Homo sapiens, UniProt Q96LD8)", "T1 sequence (Q96LD8 whole entry)": "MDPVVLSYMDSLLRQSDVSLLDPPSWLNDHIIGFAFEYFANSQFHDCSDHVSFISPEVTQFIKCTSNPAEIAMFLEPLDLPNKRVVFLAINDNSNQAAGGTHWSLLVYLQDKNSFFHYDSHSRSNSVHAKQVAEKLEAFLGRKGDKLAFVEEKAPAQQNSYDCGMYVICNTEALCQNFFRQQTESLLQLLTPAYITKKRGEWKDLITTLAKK", "assay_type": "functional"}, "[2]": {"target": "T1, Sentrin-specific protease 8", "assay_type": "functional", "remark": "listed apart in the source"}, "[3]": {"target": "T2, Heat shock factor protein 1 (Mus musculus, UniProt P38532)", "T2 sequence (P38532 whole entry)": "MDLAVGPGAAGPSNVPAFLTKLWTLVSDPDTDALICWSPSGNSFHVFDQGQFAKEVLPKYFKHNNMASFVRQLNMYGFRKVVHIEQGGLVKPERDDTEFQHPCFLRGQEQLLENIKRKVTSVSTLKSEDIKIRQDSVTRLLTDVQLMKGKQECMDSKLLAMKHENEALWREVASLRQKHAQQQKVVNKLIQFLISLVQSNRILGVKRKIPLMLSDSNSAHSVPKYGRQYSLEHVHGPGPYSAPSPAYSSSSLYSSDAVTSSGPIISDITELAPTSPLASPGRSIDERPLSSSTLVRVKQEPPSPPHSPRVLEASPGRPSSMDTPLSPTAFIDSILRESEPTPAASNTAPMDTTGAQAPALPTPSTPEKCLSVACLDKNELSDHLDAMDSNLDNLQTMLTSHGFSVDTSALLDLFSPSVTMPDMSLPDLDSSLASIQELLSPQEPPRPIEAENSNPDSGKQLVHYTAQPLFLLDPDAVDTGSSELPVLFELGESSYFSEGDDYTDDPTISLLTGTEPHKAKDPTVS", "test": "enhancement of HSF1-driven luciferase signal – cell-based, NIH3T3, luminescence, dose retest, confirmation (AID 435004);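 note: stress induced by proteasome inhibitor MG132 added 30 min after compound; actives raise luminescence as potentiators of the MG132 stress response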", "assay_type": "functional"}, "[4]": {"target": "DNA dC->dU-editing enzyme APOBEC-3G (Homo sapiens, UniProt Q9HC16)", "sequence (Q9HC16 whole entry)": "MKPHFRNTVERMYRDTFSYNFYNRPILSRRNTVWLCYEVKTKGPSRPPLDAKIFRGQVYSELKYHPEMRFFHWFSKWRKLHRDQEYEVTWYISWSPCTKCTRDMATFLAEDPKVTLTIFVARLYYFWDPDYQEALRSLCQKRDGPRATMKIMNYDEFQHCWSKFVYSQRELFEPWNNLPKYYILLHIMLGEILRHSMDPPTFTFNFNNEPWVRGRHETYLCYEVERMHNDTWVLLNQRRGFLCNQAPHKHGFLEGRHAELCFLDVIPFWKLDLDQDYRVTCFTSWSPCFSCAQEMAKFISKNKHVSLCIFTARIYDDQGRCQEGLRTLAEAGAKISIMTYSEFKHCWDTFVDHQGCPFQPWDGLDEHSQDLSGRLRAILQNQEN", "test": "Dose Response confirmation of small molecule APOBEC3G DNA Deaminase Inhibitors via a fluorescence-based single-stranded DNA deaminase assay. [Related pubchem assays (depositor defined):AID493012, AID493028]", "assay_type": "functional"}, "[5]": {"target": "T3, Mannose-6-phosphate isomerase (Homo sapiens, UniProt P34949)", "T3 sequence (P34949 whole entry)": "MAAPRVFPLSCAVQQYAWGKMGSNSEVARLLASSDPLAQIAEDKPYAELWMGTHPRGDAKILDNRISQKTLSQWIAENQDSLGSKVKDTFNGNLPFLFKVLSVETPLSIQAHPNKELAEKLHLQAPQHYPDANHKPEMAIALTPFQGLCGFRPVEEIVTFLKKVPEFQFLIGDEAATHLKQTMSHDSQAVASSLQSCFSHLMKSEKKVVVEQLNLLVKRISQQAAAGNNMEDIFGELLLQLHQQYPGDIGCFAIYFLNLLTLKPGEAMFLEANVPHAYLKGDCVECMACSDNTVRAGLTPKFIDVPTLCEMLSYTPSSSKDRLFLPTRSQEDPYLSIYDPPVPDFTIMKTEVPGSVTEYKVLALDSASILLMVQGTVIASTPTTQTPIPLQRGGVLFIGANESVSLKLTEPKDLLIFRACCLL", "test": "MPI inhibition at elevated mannose 6-phosphate – biochemical, fluorescence intensity, high mannose 6-phosphate, primary screen (AID 1220)"}, "[6]": {"test": "luciferase reporter signal suppression in cells – H4 neuroglioma cells, luminescence, dose response (AID 1990)", "assay_type": "functional, cell-based"}, "[7]": {"test": "HEK-293T cell viability reduction – luminescence, B-cell screen hits, cytotoxicity control for BCR NF-kB inhibitor project, dose response (AID 489021);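 note: cells exposed to compound for about 14 hours before viability readout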", "assay_type": "functional, cell-based"}, "[8]": {"test": "alpha-synuclein stem-loop luciferase translation blockers – H4 neuroglioma cells, luminescence, confirmation (AID 1988)", "assay_type": "functional, cell-based"}, "[9]": {"test": "Luminescence Cell-Based Dose Response HTS to Identify Inhibitors of 5'UTR Stem-Loop Driven Prion Protein mRNA Translation in H4 Neuroglioblastoma Cells. [Related pubchem assays: 1827 (Project Summary), 1813 (Primary HTS)]", "assay_type": "functional"}, "Cytochrome P450 2C19": {"target": "Cytochrome P450 2C19 (Homo sapiens, UniProt P33261)", "sequence (P33261 whole entry)": "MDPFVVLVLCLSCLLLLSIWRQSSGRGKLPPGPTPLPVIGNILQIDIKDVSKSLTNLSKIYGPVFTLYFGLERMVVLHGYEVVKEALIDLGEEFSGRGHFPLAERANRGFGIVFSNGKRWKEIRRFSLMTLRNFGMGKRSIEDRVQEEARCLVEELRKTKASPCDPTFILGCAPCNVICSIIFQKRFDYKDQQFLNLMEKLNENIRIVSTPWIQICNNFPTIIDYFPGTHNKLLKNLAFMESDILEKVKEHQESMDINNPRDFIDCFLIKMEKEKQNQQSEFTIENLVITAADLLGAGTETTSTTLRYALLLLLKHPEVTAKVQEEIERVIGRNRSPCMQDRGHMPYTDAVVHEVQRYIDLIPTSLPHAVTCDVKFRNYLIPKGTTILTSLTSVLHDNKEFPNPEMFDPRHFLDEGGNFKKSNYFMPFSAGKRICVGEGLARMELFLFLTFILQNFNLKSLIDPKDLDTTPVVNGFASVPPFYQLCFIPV", "test": "Cytochrome panel assay with activity outcomes. Panel member name: p450-cyp2c19 Compounds with AC50 equal or less than 10 uM are considered active", "assay_type": "functional", "settings": "read-out: AC50"}, "Cytochrome P450 2D6": {"target": "Cytochrome P450 2D6 (Homo sapiens, UniProt P10635)", "sequence (P10635 whole entry)": "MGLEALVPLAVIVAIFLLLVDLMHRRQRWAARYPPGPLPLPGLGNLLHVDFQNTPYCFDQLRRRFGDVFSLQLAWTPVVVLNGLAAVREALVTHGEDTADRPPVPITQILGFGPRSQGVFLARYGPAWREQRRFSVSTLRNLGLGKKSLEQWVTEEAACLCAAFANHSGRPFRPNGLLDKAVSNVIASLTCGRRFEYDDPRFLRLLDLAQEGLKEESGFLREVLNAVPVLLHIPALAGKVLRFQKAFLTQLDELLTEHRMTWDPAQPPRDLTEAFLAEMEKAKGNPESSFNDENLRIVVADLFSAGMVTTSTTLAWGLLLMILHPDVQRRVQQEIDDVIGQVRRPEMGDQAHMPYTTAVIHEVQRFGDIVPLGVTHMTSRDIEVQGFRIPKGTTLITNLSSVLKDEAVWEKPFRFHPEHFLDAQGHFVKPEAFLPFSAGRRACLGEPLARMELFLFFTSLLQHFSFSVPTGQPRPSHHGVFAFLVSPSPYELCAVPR"}, "[10]": {"test": "DRD fibroblast viability loss – cell-based, non-viral oncogenic, luminescence, dose response (AID 1934)", "assay_type": "functional", "settings": "Homo sapiens"}, "[11]": {"test": "NIH-3T3 fibroblast cytotoxicity, dose response, cytotoxicity control, cell-based, fluorescence, Alamar Blue, secondary assay (AID 2327);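 note: NIH-3T3 mouse fibroblasts cultured with fluconazole at 8 µg/mL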", "assay_type": "functional"}, "[12]": {"target": "Heat shock protein HSP 90-alpha (Homo sapiens, UniProt P07900)", "assay_type": "functional, organism-based"}, "[13]": {"test": "fluconazole-exposed Candida albicans growth modulators – fluorescence, retest, confirmation (AID 2467)", "assay_type": "functional, cell-based"}, "BJ [14]": {"system": "BJ", "test": "growth inhibition of engineered Ras-driven BJ cells – cell-based, alamar blue fluorescence, cherrypicked samples, dose response (AID 2631)", "assay_type": "functional", "settings": "Homo sapiens"}, "BJ [15]": {"system": "BJ", "test": "cells", "assay_type": "functional, cell-based", "settings": "Homo sapiens"}, "[16]": {"target": "T4, Serine/threonine-protein phosphatase (Candida dubliniensis (strain CD36 / CBS 7987 / NCPF 3949 / NRRLY-17841) (Yeast), UniProt B9W6M3)", "T4 sequence (B9W6M3 whole entry)": "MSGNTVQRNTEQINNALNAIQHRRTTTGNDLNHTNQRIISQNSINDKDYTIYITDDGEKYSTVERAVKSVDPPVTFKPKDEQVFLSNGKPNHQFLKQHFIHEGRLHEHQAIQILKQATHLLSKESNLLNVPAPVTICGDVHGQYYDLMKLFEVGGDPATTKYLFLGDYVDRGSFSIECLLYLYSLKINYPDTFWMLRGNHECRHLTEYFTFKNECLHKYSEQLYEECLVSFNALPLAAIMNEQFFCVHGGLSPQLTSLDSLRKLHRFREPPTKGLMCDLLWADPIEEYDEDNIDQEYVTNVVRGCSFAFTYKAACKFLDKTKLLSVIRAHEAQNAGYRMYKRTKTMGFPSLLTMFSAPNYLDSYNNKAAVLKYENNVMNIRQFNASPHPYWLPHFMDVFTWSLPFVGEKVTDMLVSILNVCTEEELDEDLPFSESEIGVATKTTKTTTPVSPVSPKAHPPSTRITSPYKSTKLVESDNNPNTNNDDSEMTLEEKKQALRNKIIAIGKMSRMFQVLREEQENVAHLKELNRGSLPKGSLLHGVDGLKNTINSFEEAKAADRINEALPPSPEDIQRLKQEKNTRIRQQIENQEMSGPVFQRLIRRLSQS", "test": "blockers of CaCl2-induced CDRE-lacZ signaling – S. cerevisiae, luminescence, secondary, dose response (AID 2388);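 note: yeast reporter cells carrying a calcineurin-responsive lacZ construct stimulated with calcium chloride; luminescent beta-galactosidase reporter signal in whole cells rather than isolated phosphatase activity; potency for inhibition where a drop in reporter signal means calcineurin blockade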", "assay_type": "functional, cell-based"}, "[17]": {"target": "ATP-dependent molecular chaperone HSP82 (Candida albicans (strain WO-1) (Yeast), UniProt C4YTQ8)", "sequence (C4YTQ8 whole entry)": "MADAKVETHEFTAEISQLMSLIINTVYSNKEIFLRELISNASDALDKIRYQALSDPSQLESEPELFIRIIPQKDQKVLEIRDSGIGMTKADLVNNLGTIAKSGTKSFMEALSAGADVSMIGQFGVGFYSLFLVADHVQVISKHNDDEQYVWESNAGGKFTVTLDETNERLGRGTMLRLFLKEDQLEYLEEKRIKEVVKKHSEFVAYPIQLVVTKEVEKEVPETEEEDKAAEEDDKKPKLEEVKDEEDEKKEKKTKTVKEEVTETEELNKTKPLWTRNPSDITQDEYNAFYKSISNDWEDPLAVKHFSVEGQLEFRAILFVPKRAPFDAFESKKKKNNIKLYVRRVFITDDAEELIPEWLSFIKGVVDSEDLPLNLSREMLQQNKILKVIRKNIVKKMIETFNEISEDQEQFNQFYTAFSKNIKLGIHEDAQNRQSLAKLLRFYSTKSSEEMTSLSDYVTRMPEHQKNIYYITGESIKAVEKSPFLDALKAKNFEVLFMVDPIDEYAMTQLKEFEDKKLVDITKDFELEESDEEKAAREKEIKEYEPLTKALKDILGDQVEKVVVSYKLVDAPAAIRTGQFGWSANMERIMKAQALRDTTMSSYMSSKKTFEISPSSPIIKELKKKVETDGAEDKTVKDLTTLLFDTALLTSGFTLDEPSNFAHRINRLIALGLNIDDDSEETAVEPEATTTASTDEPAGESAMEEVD", "test": "steroid-induced GRE reporter decrease in yeast – S. cerevisiae, luminescence, Hsp90 inhibitor project, dose response (AID 2400);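 note: beta-galactosidase luminescence from glucocorticoid response element reporter as proxy for Hsp90 function; inhibitor potency where signal loss means Hsp90 inhibition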", "assay_type": "functional, cell-based"}, "BJ [18]": {"system": "BJ", "test": "BJ-TERT-LT-ST fibroblast viability loss – cell-based, RAS-independent, luminescence, dose response (AID 1935);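 note: BJ fibroblasts immortalized with TERT plus LT and ST oncogenes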", "assay_type": "functional", "settings": "Homo sapiens"}, "Nonstructural protein 1": {"target": "Nonstructural protein 1 (Influenza A virus, UniProt Q194T2)", "sequence (Q194T2 whole entry)": "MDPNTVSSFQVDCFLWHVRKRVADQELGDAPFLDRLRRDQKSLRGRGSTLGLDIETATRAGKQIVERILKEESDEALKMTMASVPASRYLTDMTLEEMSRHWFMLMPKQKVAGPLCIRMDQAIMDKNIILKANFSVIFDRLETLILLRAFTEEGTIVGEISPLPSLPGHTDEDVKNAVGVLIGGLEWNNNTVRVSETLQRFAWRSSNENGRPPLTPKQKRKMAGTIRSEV", "assay_type": "functional, Influenza A virus (A/California/07/2009(H1N1))"}, "BJ [19]": {"system": "BJ", "test": "BJ-TERT fibroblast viability loss – cell-based, RAS-independent, luminescence, dose response (AID 1933)", "assay_type": "functional", "settings": "Homo sapiens"}},
  "note": "Active and inactive are the calls of the source.",
  "data": [
    {"smiles": "CC(=O)C1=C(C)NC2(O)c3ccccc3C(=O)C12O", "note": "(stereo not given)", "values": [
      {"measurement": "IC50", "setting": "[1]", "value": "22.4 µM (active)"},
      {"measurement": "IC50", "setting": "[2]", "value": "11.1 µM (active)"},
      {"measurement": "EC50", "setting": "[3]", "value": "> 260 µM (inactive)"}
    ]},
    {"smiles": "O=C(NC1=NC(=O)C(F)(C(F)(F)F)S1)NC1CCCCC1", "note": "(stereo not given)", "values": [
      {"measurement": "IC50", "setting": "[4]", "value": "32.7 µM (active)"},
      {"measurement": "IC50", "setting": "[5]", "value": "> 50 µM (not active)"}
    ]},
    {"smiles": "CCOC(=O)c1sc(N)c(C(=O)Nc2ccccc2OC)c1C", "values": [
      {"measurement": "IC50", "setting": "[4]", "value": "68.9 µM (active)"}
    ]},
    {"smiles": "CCNc1nc(C)c2cc(Br)c(=O)n(CC)c2n1", "values": [
      {"measurement": "EC50", "setting": "[6]", "value": "15.9 µM (active)"},
      {"measurement": "IC50", "setting": "[7]", "value": "> 80 µM (inactive)"},
      {"measurement": "EC50", "setting": "[8]", "value": "11.5 µM (active)"},
      {"measurement": "EC50", "setting": "[9]", "value": "7.96 µM (active)"}
    ]},
    {"smiles": "CC(=O)Nc1ccccc1C(=O)C(=O)O", "values": [
      {"measurement": "AC50", "setting": "Cytochrome P450 2C19", "value": "10 µM (inconclusive)"},
      {"measurement": "AC50", "setting": "Cytochrome P450 2D6", "value": "inconclusive"}
    ]},
    {"smiles": "O=Cc1ccc(O)c2ncccc12", "values": [
      {"measurement": "EC50", "setting": "[10]", "value": "16.6 µM (active)"},
      {"measurement": "EC50", "setting": "[11]", "value": "16.1 µM (active)"},
      {"measurement": "AC50", "setting": "[12]", "value": "0.552 µM (active)"},
      {"measurement": "EC50", "setting": "[13]", "value": "0.333 µM (active)"},
      {"measurement": "EC50", "setting": "BJ [14]", "value": "0.284 µM (active)"},
      {"measurement": "EC50", "setting": "BJ [15]", "value": "33.7 µM (active)"},
      {"measurement": "EC50", "setting": "[16]", "value": "3.93 µM (active)"},
      {"measurement": "EC50", "setting": "[17]", "value": "11.2 µM (active)"},
      {"measurement": "EC50", "setting": "BJ [18]", "value": "21.1 µM (inconclusive)"},
      {"measurement": "IC50", "setting": "Nonstructural protein 1", "value": "1.71 µM (active)"},
      {"measurement": "EC50", "setting": "BJ [19]", "value": "4.43 µM (active)"}
    ]},
    {"smiles": "CCOC(=O)C(/C=N/c1cc(C)ccc1C)=C(\\O)OCC", "values": [
      {"measurement": "IC50", "setting": "[7]", "value": "> 80 µM (inactive)"}
    ]},
    {"smiles": "Cc1cccc(OCCn2c(S(=O)(=O)O)nc3ccccc32)c1", "values": [
      {"measurement": "AC50", "setting": "Cytochrome P450 2D6", "value": "inconclusive"}
    ]}
  ]
}
